Measured values as given in patent US20060025589A1, “2-Thiohydantoine derivative compounds and use thereof for the treatment of diabetes” (priority 2002, published 2006).

system: male C57BL/KsJ-db/db mice; experiment: in vivo reduction of serum glucose and triglyceride levels in diabetic db/db mice; details: gavage, suspended in 3% gum arabic, twice daily for 10 days plus morning of day 11, doses below 200 mg/kg, generally 10 mg/kg, blood taken 4 h after last administration
Method: The compounds of formula (I) according to the invention were subjected to pharmacological tests in order to evaluate their potential to reduce the blood glycemia level.
The in vivo studies were carried out on male C57BL/KsJ-db/db mice originating from CERJ (Route des Chênes Secs—BP 5—53940 Le Genest St Isle—France).
The animals are accommodated in cages fitted with a filter lid and have free access to an irradiated standard food and to filtered drinking water. All the equipment used (cages, feeding bottles, pipettes and shavings) is sterilized by autoclaving, irradiation or immersion in a disinfectant. The temperature of the room is maintained at 23±2° C. The light-dark cycle is 12 h.
During the acclimatization period, each animal is tagged with an electronic chip, which is implanted under anesthesia effected by the inhalation of a CO2/O2 mixture.
Groups of 8 to 10 mice are formed and the treatments start when the animals are 9 to 11 weeks old. The products are suspended in gum arabic at a concentration of 3% and administered to the animals by means of a gavage cannula for 10 days at a rate of two administrations per day, as well as on the morning of day 11. The products are tested at doses below 200 mg/kg and generally of 10 mg/kg. The animals in the control group receive the dosage vehicle only.
A blood sample is taken before treatment and then four hours after the last administration of the product. The animals are anesthetized by the inhalation of a CO2/O2 mixture and the blood is taken from the retro-orbital sinus, collected in a dry tube and kept cold. The serum is separated off by centrifugation at 2800 g (15 minutes, 4° C.) during the hour following sampling. The samples are kept at −20° C. until they are analyzed.
The serum glucose and triglyceride levels are determined on a Konélab 30 analyzer by means of Konélab kits. The animals whose glycemia before treatment was below 3 g/l are systematically excluded from the study.
For each group, the mean glucose and triglyceride levels after treatment are calculated and the results are expressed as the percentage variation of these means relative to the control group after verification of the homogeneity of the means before treatment.

Going from `CC1C(=O)N(c2cccc(F)c2)C(=S)N1c1ccc(Oc2ccccc2)cc1` (centres unmarked) [Example 20, 3-(3-Fluorophenyl)-5-methyl-1-(4-phenoxyphenyl)-2-thioxoimidazolidin-4-one] to `COc1ccc(N2C(=O)C(C)N(c3ccc(Cc4ccccc4)cc3)C2=S)cc1` (centres unmarked) [Example 200, 3-(4-Methoxyphenyl)-5-methyl-1-[4-(phenylmethyl)phenyl]-2-thioxoimidazolidin-4-one], the “Gly (decrease in the glycemia level; percentage variation of mean serum glucose relative to the control group)” value falls from −47% to −63%.

Going from `COc1ccc(N2C(=O)C(C)(C)N(c3ccc(Oc4ccccc4)cc3)C2=S)cc1` [Example 30, 5,5-Dimethyl-3-(4-methoxyphenyl)-1-(4-phenoxyphenyl)-2-thioxoimidazolidin-4-one] to `COc1ccc(N2C(=O)C(C)N(c3ccc(OCc4ccccc4)cc3)C2=S)cc1` (centres unmarked) [Example 139], the “Gly (decrease in the glycemia level; percentage variation of mean serum glucose relative to the control group)” value rises from −54% to −36%.

Compared with `CC1C(=O)N(c2ccc(Cc3ccccc3)cc2)C(=S)N1c1ccccc1` (centres unmarked) [Example 185, 5-Methyl-1-phenyl-3-[4-(phenylmethyl)phenyl]-2-thioxoimidazolidin-4-one], `COc1ccc(N2C(=O)CN(c3ccc(Cc4ccccc4)cc3)C2=S)cc1` [Example 195, 3-(4-Methoxyphenyl)-1-[4-(phenylmethyl)phenyl]-2-thioxoimidazolidin-4-one] is higher in “Gly (decrease in the glycemia level; percentage variation of mean serum glucose relative to the control group)” value: −57% for the first, −53% for the second.

`C=CCN1CC(=O)N(c2ccc(Cc3ccccc3)cc2)C1=S` [Example 190, 3-[4-(Phenylmethyl)phenyl]-1-(2-propenyl)-2-thioxoimidazolidin-4-one] was tested, and the “Gly (decrease in the glycemia level; percentage variation of mean serum glucose relative to the control group)” value was −58%.

Compared with `CC1C(=O)N(c2cccc(F)c2)C(=S)N1c1ccc(Oc2ccccc2)cc1` (centres unmarked) [Example 20, 3-(3-Fluorophenyl)-5-methyl-1-(4-phenoxyphenyl)-2-thioxoimidazolidin-4-one], `COc1ccc(N2C(=O)C(C)N(c3ccc(Cc4ccccc4)cc3)C2=S)cc1` (centres unmarked) [Example 200, 3-(4-Methoxyphenyl)-5-methyl-1-[4-(phenylmethyl)phenyl]-2-thioxoimidazolidin-4-one] is lower in “TG (decrease in the triglyceride level; percentage variation of mean serum triglycerides relative to the control group)” value: −47% for the first, −58% for the second.

Going from `COc1ccc(N2C(=O)C(C)(C)N(c3ccc(Oc4ccccc4)cc3)C2=S)cc1` [Example 30, 5,5-Dimethyl-3-(4-methoxyphenyl)-1-(4-phenoxyphenyl)-2-thioxoimidazolidin-4-one] to `COc1ccc(N2C(=O)C(C)N(c3ccc(OCc4ccccc4)cc3)C2=S)cc1` (centres unmarked) [Example 139], the “TG (decrease in the triglyceride level; percentage variation of mean serum triglycerides relative to the control group)” value rises from −53% to −32%.

Compared with `CC1C(=O)N(c2ccc(Cc3ccccc3)cc2)C(=S)N1c1ccccc1` (centres unmarked) [Example 185, 5-Methyl-1-phenyl-3-[4-(phenylmethyl)phenyl]-2-thioxoimidazolidin-4-one], `COc1ccc(N2C(=O)CN(c3ccc(Cc4ccccc4)cc3)C2=S)cc1` [Example 195, 3-(4-Methoxyphenyl)-1-[4-(phenylmethyl)phenyl]-2-thioxoimidazolidin-4-one] is lower in “TG (decrease in the triglyceride level; percentage variation of mean serum triglycerides relative to the control group)” value: −39% for the first, −46% for the second.

With `C=CCN1CC(=O)N(c2ccc(Cc3ccccc3)cc2)C1=S` [Example 190, 3-[4-(Phenylmethyl)phenyl]-1-(2-propenyl)-2-thioxoimidazolidin-4-one] the “TG (decrease in the triglyceride level; percentage variation of mean serum triglycerides relative to the control group)” value was −53%.
